Patent publication US12398141B2 (SHANGHAI SYNERGY PHARMACEUTICAL SCIENCES CO., LTD, priority 2019, dated 2025)

Legend:
[1] = Collagen-induced rheumatoid arthritis model, clinical score; type: in vivo, mice; design: key: 0-4 per limb by redness/deformity, max 16 per animal; conditions: clinical score 0-16 per animal, Day 0 (before modeling)
Procedure: (§1) The effects of compounds H07, H12, H14, H25, H30, H39 and H44 on rheumatoid arthritis in […] were determined after long term administration by using Lewis male […] (Beijing Vital River Laboratory Animal Technology Co., Ltd.), aged 5-6 weeks and weighing […] as test animals. The anti-inflammatory pharmacodynamics characteristic of the compounds of the invention was discussed.
(§2) A certain amount of compounds were taken and dissolved in 4% Tween 80/0.5% hydroxy propyl methyl cellulose solution. A volume of intragastric administration of mice was 10 ml/kg.
(§3) Collagen type II was dissolved in 0.1M acetic acid and kept in a 4° C. refrigerator overnight at a collagen concentration of 4 mg/mL. Same volume of incomplete Freund adjuvant (Sigma, USA) was added in collagen before injection in test, which was emulsified high speed homogenizer (30000 rpm) to prepare a collagen emulsion. This procedure was carried out on ice.
(§4) Mice were immunologically injected with the collagen emulsion by two separate times for modeling on days 1 and 7 (the day before modeling was day 0). 0.1 ml of collagen emulsion prepared as above was injected intradermally into a root of tail at a single point, and 0.2 ml was injected intradermally into back at two points. The animals were subjected to clinical score and paw volume test from day 10 to day 14 after modeling. Animals successfully modeled (average clinical score≥3 points/animal) were assigned to each administration group, with each group included 10 animals. They were administrated intragastrically with above compounds or resolvents at a dosage of 10 mg/kg twice/day, and administrated intragastrically with methotrexate (2 mg/kg, Sigma, USA) every three days, until day 27. During the test, the […] were scored twice a week, and the paw volume and body weight were measured twice.
(§5) According to the different degrees of lesions (redness and joint deformation), the scores were ranged from 0 to 4 points, with the highest score of 4 points for each limb and 16 points for each animal. Scoring standards are as follows: 0, no redness; 1, slight redness on mid legs (tarsals) or ankles; 2, slight redness from ankles to mid legs (tarsals); 3, medium redness from ankles to tarsometatarsal joints; 4, severe redness from toes or fingers to ankles or wrist joints.

[2] = system: Lewis male mice; assay: as above; type: in vivo; design: key: 0-4 per limb by redness/deformity, max 16 per animal; conditions: clinical score 0-16 per animal, compounds 10 mg/kg twice/day, methotrexate 2 mg/kg every three days
Procedure: as §1, §2, §3, §4, §5

[3] = molecular target: JAK2 (Homo sapiens (Human), UniProt O60674); assay: JAK2 LANCE Ultra kinase assay; type: biochemical; conditions: 12 uM ATP
Chain of JAK2 (O60674 whole entry): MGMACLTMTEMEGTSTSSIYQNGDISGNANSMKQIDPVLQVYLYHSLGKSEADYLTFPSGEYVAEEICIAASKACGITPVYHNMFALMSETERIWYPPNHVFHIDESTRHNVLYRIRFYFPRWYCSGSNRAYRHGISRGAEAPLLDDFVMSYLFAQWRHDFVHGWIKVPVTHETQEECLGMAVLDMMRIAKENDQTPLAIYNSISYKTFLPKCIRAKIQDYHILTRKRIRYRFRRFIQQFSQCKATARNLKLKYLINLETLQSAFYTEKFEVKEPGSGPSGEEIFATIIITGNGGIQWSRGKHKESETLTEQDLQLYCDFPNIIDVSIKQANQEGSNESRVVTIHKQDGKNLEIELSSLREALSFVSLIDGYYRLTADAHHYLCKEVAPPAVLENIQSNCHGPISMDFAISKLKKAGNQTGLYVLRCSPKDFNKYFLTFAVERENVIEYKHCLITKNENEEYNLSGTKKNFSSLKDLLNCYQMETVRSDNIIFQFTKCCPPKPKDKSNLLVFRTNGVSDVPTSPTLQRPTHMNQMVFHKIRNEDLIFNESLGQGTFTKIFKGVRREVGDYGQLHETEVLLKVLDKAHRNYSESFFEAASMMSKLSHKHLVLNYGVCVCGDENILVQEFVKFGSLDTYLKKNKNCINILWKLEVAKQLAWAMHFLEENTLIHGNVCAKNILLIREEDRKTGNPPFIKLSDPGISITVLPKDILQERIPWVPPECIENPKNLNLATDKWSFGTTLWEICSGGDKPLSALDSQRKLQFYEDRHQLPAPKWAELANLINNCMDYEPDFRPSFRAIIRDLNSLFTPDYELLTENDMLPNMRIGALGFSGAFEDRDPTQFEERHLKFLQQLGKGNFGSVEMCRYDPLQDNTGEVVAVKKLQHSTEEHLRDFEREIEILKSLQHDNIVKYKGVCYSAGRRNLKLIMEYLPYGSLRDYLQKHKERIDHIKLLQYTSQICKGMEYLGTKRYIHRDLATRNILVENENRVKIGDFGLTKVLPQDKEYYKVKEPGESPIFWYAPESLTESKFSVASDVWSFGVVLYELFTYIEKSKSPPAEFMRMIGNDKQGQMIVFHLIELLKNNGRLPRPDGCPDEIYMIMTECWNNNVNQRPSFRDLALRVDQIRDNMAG

[4] = system: male ICR mice; assay: Carrageenan-induced paw swelling in mice; type: in vivo; conditions: 10 mg/kg intragastric; for Paw swelling_0.5 h (%): 0.5 h; for Paw swelling rate_1 h (%): 1 h; for Paw swelling rate_2 h (%): 2 h
Outline: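 Compounds in 4% Tween 80/0.5% HPMC given intragastrically at 10 mg/kg (10 ml/kg); 0.5 h later 20 μL 1% carrageenan injected into the plantar. Paw volume measured before and at 0.5, 1 and 2 h; swelling rate expressed relative to baseline paw volume.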

[5] = molecular target: JAK3 (Homo sapiens (Human), UniProt P52333); assay: JAK3 LANCE Ultra kinase assay; type: biochemical; conditions: 4 uM ATP
Chain of JAK3 (P52333 whole entry): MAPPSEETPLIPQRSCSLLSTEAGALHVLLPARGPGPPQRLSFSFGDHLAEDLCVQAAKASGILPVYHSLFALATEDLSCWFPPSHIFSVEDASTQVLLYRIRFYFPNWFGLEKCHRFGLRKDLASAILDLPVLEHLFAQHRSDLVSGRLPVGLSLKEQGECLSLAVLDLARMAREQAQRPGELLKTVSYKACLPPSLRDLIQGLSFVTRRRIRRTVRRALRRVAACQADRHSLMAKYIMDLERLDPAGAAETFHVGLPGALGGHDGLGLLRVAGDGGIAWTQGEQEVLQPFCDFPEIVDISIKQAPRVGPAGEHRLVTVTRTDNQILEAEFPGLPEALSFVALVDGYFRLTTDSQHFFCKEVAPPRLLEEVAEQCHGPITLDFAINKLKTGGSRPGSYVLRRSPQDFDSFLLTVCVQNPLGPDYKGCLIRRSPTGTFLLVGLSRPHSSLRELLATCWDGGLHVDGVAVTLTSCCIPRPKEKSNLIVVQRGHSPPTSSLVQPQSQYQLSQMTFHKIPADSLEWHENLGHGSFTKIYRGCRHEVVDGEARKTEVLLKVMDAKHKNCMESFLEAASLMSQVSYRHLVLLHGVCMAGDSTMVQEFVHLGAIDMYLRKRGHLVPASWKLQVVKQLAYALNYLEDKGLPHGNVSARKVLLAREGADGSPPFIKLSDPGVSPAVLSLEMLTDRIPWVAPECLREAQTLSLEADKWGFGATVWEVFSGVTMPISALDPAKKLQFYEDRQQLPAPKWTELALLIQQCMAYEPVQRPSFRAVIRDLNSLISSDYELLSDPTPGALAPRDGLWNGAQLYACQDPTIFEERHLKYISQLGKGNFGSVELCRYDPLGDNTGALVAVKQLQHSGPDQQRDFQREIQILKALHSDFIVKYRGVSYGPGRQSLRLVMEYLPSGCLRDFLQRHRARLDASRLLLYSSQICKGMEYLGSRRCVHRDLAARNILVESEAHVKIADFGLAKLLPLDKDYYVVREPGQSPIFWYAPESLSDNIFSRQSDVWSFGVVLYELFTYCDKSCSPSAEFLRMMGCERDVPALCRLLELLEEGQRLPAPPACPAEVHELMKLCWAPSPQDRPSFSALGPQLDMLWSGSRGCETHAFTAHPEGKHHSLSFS

[6] = molecular target: JAK1 (Homo sapiens (Human), UniProt P23458); assay: JAK1 LANCE Ultra kinase assay; type: biochemical; conditions: for IC50: 38 uM ATP; for JAK2/JAK1: ratio of IC50 JAK2 to IC50 JAK1
Chain of JAK1 (P23458 whole entry): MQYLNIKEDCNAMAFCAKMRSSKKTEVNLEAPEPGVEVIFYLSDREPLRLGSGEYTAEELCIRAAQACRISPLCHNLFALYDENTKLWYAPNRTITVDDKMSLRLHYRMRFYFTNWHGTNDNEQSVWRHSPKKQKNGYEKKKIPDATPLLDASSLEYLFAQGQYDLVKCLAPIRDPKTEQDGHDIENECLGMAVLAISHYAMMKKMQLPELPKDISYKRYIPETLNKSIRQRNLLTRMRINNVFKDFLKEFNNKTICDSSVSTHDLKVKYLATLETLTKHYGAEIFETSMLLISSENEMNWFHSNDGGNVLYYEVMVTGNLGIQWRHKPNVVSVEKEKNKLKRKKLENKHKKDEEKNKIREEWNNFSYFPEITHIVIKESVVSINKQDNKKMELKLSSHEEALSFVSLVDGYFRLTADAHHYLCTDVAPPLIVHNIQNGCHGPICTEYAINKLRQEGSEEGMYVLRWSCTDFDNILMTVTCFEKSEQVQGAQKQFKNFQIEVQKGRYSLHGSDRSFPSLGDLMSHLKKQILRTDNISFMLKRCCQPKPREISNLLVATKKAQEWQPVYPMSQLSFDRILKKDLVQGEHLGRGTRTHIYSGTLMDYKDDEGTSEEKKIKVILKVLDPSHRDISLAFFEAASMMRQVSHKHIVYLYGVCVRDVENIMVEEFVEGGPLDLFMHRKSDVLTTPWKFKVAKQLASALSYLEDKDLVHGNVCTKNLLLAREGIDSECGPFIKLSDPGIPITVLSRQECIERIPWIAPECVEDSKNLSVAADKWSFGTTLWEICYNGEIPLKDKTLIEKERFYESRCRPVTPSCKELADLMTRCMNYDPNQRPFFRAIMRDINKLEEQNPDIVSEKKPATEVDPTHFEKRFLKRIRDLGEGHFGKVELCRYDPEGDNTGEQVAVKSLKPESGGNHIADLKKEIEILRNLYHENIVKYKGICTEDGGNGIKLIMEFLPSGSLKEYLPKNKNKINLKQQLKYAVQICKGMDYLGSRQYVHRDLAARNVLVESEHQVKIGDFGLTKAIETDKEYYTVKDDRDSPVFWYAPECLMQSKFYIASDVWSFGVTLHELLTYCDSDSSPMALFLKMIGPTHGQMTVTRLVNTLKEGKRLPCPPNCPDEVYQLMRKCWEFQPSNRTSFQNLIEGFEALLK
Outline: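 JAK1 preincubated with compound 10 min at room temperature, then ULight-JAK-1 peptide/ATP added for 90 min at room temperature; stopped with EDTA, Eu-W1024 anti-phosphotyrosine TR-FRET read after 60 min. Inhibition normalised to DMSO and blank wells; IC50 from curve fit.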

CCCS(=O)(=O)N[C@H]1C[C@@H](N(C)c2c(C#N)cnc3[nH]ccc23)C1 [Compound H14, (cis)-4-{[3-(propanesulfonamido)-cyclobutyl-1-yl]-methyl-amino}-1H-pyrrolo[2,3-b]pyridin-5-carbonitrile]
Score Day 0 [1]: 0.00 ± 0.00
Score Day 13 [2]: 3.30 ± 0.32
Score Day 14 [2]: 4.10 ± 0.50
Score Day 18 [2]: 3.20 ± 0.73
Score Day 21 [2]: 3.20 ± 0.61
Score Day 25 [2]: 2.20 ± 0.45
Score Day 27 [2]: 1.10 ± 0.27
IC50 [3]: 9.95 nM
Paw swelling_0.5 h (%) [4]: 39.03 ± 4.53%
Paw swelling rate_1 h (%) [4]: 40.65 ± 2.51%
Paw swelling rate_2 h (%) [4]: 39.00 ± 4.25%
IC50 [5]: 34.2 nM
IC50 [6]: 1.78 nM
JAK2/JAK1 [6]: 5.59

N#Cc1cnc2[nH]ccc2c1N[C@H]1C[C@@H](NS(=O)(=O)CCC(F)(F)F)C1 [Compound H12, (cis)-4-{[3-(3,3,3-trifluoropropanesulfonamido)-cyclobutyl-1-yl]-amino}-1H-pyrrolo[2,3-b]pyridin-5-carbonitrile]
Score Day 0 [1]: 0.00 ± 0.00
Score Day 13 [2]: 3.40 ± 0.39
Score Day 14 [2]: 3.90 ± 0.61
Score Day 18 [2]: 2.90 ± 0.67
Score Day 21 [2]: 1.23 ± 0.29
Score Day 25 [2]: 0.60 ± 0.17
Score Day 27 [2]: 0.50 ± 0.14
IC50 [3]: 7.63 nM
Paw swelling_0.5 h (%) [4]: 38.45 ± 4.37%
Paw swelling rate_1 h (%) [4]: 45.64 ± 3.58%
Paw swelling rate_2 h (%) [4]: 41.66 ± 5.38%
IC50 [5]: 66 nM
IC50 [6]: 0.56 nM

N#Cc1cnc2[nH]ccc2c1N1CC2CN(C(=O)NCC(F)(F)F)CC21 (centres unmarked) [Compound H39, 6-(5-cyano-1H-pyrrolo[2,3-b]pyridin-4-yl)-N-(2,2,2-trifluoroethyl)-3,6-diazabicyclo[3.2.0]heptane-3-carboxamide]
Score Day 0 [1]: 0.00 ± 0.00
Score Day 13 [2]: 3.10 ± 0.44
Score Day 14 [2]: 4.10 ± 0.50
Score Day 18 [2]: 3.0 ± 0.37
Score Day 21 [2]: 2.33 ± 0.31
Score Day 25 [2]: 2.20 ± 0.52
Score Day 27 [2]: 1.10 ± 0.27
IC50 [3]: 21 nM
Paw swelling_0.5 h (%) [4]: 30.45 ± 1.74%
Paw swelling rate_1 h (%) [4]: 26.44 ± 3.68%
Paw swelling rate_2 h (%) [4]: 38.99 ± 5.58%
IC50 [5]: 150 nM
IC50 [6]: 0.35 nM
JAK2/JAK1 [6]: 60.00
